In ChEMBL document CHEMBL1128163, “Synthesis and biological evaluation of 4-heterotribactams” (Bioorg Med Chem Lett, 1995):
Activity calls are given as the source filed them. No cut-off for these calls is given here.

Assays:
Assay type in all cases: functional, organism-based
Escherichia coli [1] = assay: Antibacterial activity against Escherichia coli 1850-WT strain at 16 ug/mL concentration; A - low activity was observed
Escherichia coli [2] = assay: Antibacterial activity against Escherichia coli 1852-PM strain at 16 ug/mL concentration; A - low activity was observed
Escherichia coli [3] = assay: Antibacterial activity against Escherichia coli 1919-PM/TEM-1 strains at a concentration of at 16 ug/mL concentration; A - low activity was observed
Escherichia coli [4] = assay: Antibacterial activity against Escherichia coli 851 at 16 ug/mL concentration; A - low activity was observed
Pseudomonas aeruginosa [5] = assay: Antibacterial activity against Pseudomonas aeruginosa at concentrations >32 ug/mL; inactive
Streptococcus pneumoniae = assay: Antibacterial activity against Streptococcus pneumoniae at a concentration of 2 ug/mL; A - weak activity was observed
Staphylococcus aureus [6] = assay: Antibacterial activity against resistant strains of Staphylococcus aureus at 2-32 ug/mL concentration; A - weak activity was observed
Staphylococcus aureus [7] = assay: Antibacterial activity against sensitive strains of Staphylococcus aureus at 2-32 ug/mL concentration; A - weak activity was observed
[8] = test system: Staphylococcus epidermidis; assay: Antibacterial activity against Staphylococcus epidermidis at 2 ug/mL concentration; A - weak activity was observed
Pseudomonas aeruginosa [9] = assay: Tested for broad spectrum antibacterial activity against Pseudomonas aeruginosa; A - active compound

| Compound | Activity (Escherichia coli [1]) | Activity (Escherichia coli [2]) | Activity (Escherichia coli [3]) | Activity (Escherichia coli [4]) | Activity (Pseudomonas aeruginosa [5]) | Activity (Streptococcus pneumoniae) | Activity (Staphylococcus aureus [6]) | Activity (Staphylococcus aureus [7]) | Activity [8] | Activity (Pseudomonas aeruginosa [9]) |
| --- | --- | --- | --- | --- | --- | --- | --- | --- | --- | --- |
| C[C@@H](O)[C@H]1C(=O)N2C(C(=O)O)=C3SCC[C@H]3[C@H]12 | Low activity | Low activity | Low activity | Low activity | inactive | Low activity | Low activity | Low activity | Low activity | – |
| C[C@@H](O)[C@H]1C(=O)N2C(C(=O)O)=C(SCCN)C[C@H]12 | – | – | – | – | – | – | – | – | – | Low activity |
| C[C@@H](O)[C@H]1C(=O)N2C(C(=O)O)=C(S[C@@H]3CN[C@H](C(=O)N(C)C)C3)[C@H](C)[C@H]12 | – | – | – | – | – | – | – | – | – | Low activity |
